In patent US20170190671A1, “BIS(ARYL)CATECHOL DERIVATIVES AS HERBICIDES” (E I DU PONT DE NEMOURS AND COMPANY, priority 2014, published 2017):

What was measured:
Assay in all cases: Test C preemergence
Type in all cases: in vivo
[1] = system: Italian ryegrass (Lolium multiflorum); conditions: Lolium multiflorum, pre-emergence, 336 h, scale 0 to 100, read-out: Plant response rating, Ryegrass, Italian
Outline: (§1)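 Seeds in loam-sand soil were treated preemergence, and plants at the 1- to 4-leaf stage (2-18 cm) in peat-based medium were sprayed postemergence, with test chemicals in a non-phytotoxic solvent containing surfactant. After 13-15 days in a greenhouse, response was rated visually against controls from 0 (no effect) to 100 (complete control).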

[2] = system: barnyardgrass (Echinochloa crus-galli); conditions: Echinochloa crus-galli, pre-emergence, read-out: Plant response rating, Barnyardgrass
Outline: as §1

[3] = system: blackgrass (Alopecurus myosuroides); conditions: Alopecurus myosuroides, pre-emergence, 336 h, scale 0 to 100, read-out: Plant response rating, Blackgrass
Outline: as §1

corn (Zea mays) = conditions: Zea mays, pre-emergence, 336 h, scale 0 to 100
Outline: as §1

[4] = system: giant foxtail (Setaria faberii); conditions: Setaria faberi, pre-emergence, 336 h, scale 0 to 100, read-out: Plant response rating, Foxtail, Giant
Outline: as §1

[5] = system: johnsongrass (Sorghum halepense); conditions: Sorghum halepense, pre-emergence, 336 h, scale 0 to 100, read-out: Plant response rating, Johnsongrass
Outline: as §1

[6] = system: lambsquarters (Chenopodium album); conditions: Chenopodium album, pre-emergence, 336 h, scale 0 to 100, read-out: Plant response rating, Lambsquarters
Outline: as §1

[7] = system: large (Lg) crabgrass (Digitaria sanguinalis); conditions: Digitaria sanguinalis, pre-emergence, 336 h, scale 0 to 100, read-out: Plant response rating, Crabgrass, Large
Outline: as §1

[8] = system: pigweed (Amaranthus retroflexus); conditions: Amaranthus retroflexus, pre-emergence, 336 h, scale 0 to 100, read-out: Plant response rating, Pigweed
Outline: as §1

[9] = system: ragweed (common ragweed, Ambrosia elatior); conditions: Ambrosia artemisiifolia, pre-emergence, 336 h, preemergence, scale 0 to 100, read-out: Plant response rating, Ragweed
Outline: as §1

soybean (Glycine max) = conditions: Glycine max, pre-emergence, preemergence, scale 0 to 100, read-out: Plant response rating, Soybean
Outline: as §1

[10] = system: velvetleaf (Abutilon theophrasti); conditions: Abutilon theophrasti, pre-emergence, scale 0 to 100, read-out: Plant response rating, Velvetleaf
Outline: as §1

[11] = system: winter wheat (Triticum aestivum); conditions: Triticum aestivum, pre-emergence, 336 h, scale 0 to 100, read-out: Plant response rating, Wheat
Outline: as §1

[12] = system: yellow nutsedge (Cyperus esculentus); conditions: Cyperus, pre-emergence, 336 h, scale 0 to 100, read-out: Plant response rating, Nutsedge, Yellow
Outline: as §1

Compound: N#Cc1cccc(Oc2ncc(Br)cn2)c1Oc1ncc(Cl)cn1 [Compound 5, 3-[(5-bromo-2-pyrimidinyl)oxy]-2-[(5-chloro-2-pyrimidinyl)oxy]benzonitrile]
- pest or weed control at 31 g/ha ([1]; 31 g ai/ha, preemergence): 5%
- pest or weed control at 62 g/ha ([1]; 62 g ai/ha, preemergence): 55%
- pest or weed control at 125 g/ha ([1]; 125 g ai/ha, preemergence): 60%
- pest or weed control at 16 g/ha ([1]; Preemergence, 16 g ai/ha): 0%
- pest or weed control at 31 g/ha ([2]; 31 g ai/ha, preemergence, scale 0 to 100): 60%
- pest or weed control at 62 g/ha ([2]; 62 g ai/ha, preemergence, scale 0 to 100): 85%
- pest or weed control at 125 g/ha ([2]; 125 g ai/ha, preemergence, scale 0 to 100): 98%
- pest or weed control at 16 g/ha ([2]; Preemergence, 16 g ai/ha, scale 0 to 100 (0 no effect, 100 complete control)): 20%
- pest or weed control at 31 g/ha ([3]; 31 g ai/ha, preemergence): 30%
- pest or weed control at 62 g/ha ([3]; 62 g ai/ha, preemergence): 40%
- pest or weed control at 125 g/ha ([3]; 125 g ai/ha, preemergence): 70%
- pest or weed control at 16 g/ha ([3]; Preemergence, 16 g ai/ha): 10%
- Corn plant response rating (crop injury, 0 = no effect, 100 = complete kill) at 31 g/ha (corn (Zea mays); 31 g ai/ha, preemergence): 25%
- Corn plant response rating (crop injury, 0 = no effect, 100 = complete kill) at 62 g/ha (corn (Zea mays); 62 g ai/ha, preemergence): 60%
- Corn plant response rating (crop injury, 0 = no effect, 100 = complete kill) at 125 g/ha (corn (Zea mays); 125 g ai/ha, preemergence): 75%
- Corn plant response rating (crop injury, 0 = no effect, 100 = complete kill) at 16 g/ha (corn (Zea mays); Preemergence, 16 g ai/ha): 5%
- pest or weed control at 31 g/ha ([4]; 31 g ai/ha, preemergence): 80%
- pest or weed control at 62 g/ha ([4]; 62 g ai/ha, preemergence): 100%
- pest or weed control at 125 g/ha ([4]; 125 g ai/ha, preemergence): 100%
- pest or weed control at 16 g/ha ([4]; Preemergence, 16 g ai/ha): 30%
- pest or weed control at 31 g/ha ([5]; 31 g ai/ha, preemergence): 40%
- pest or weed control at 62 g/ha ([5]; 62 g ai/ha, preemergence): 70%
- pest or weed control at 125 g/ha ([5]; 125 g ai/ha, preemergence): 80%
- pest or weed control at 16 g/ha ([5]; Preemergence, 16 g ai/ha): 0%
- pest or weed control at 31 g/ha ([6]; 31 g ai/ha, preemergence): 100%
- pest or weed control at 62 g/ha ([6]; 62 g ai/ha, preemergence): 100%
- pest or weed control at 125 g/ha ([6]; 125 g ai/ha, preemergence): 100%
- pest or weed control at 16 g/ha ([6]; Preemergence, 16 g ai/ha): 80%
- pest or weed control at 31 g/ha ([7]; 31 g ai/ha, preemergence): 98%
- pest or weed control at 62 g/ha ([7]; 62 g ai/ha, preemergence): 100%
- pest or weed control at 125 g/ha ([7]; 125 g ai/ha, preemergence): 100%
- pest or weed control at 16 g/ha ([7]; Preemergence, 16 g ai/ha): 70%
- pest or weed control at 31 g/ha ([8]; 31 g ai/ha, preemergence): 100%
- pest or weed control at 62 g/ha ([8]; 62 g ai/ha, preemergence): 100%
- pest or weed control at 125 g/ha ([8]; 125 g ai/ha, preemergence): 100%
- pest or weed control at 16 g/ha ([8]; Preemergence, 16 g ai/ha): 100%
- pest or weed control at 31 g/ha ([9]; 31 g ai/ha): 20%
- pest or weed control at 62 g/ha ([9]; 62 g ai/ha): 80%
- pest or weed control at 125 g/ha ([9]; 125 g ai/ha): 100%
- plant injury at 31 g/ha (soybean (Glycine max); 31 g ai/ha): 45%
- plant injury at 62 g/ha (soybean (Glycine max); 62 g ai/ha): 65%
- plant injury at 125 g/ha (soybean (Glycine max); 125 g ai/ha): 85%
- pest or weed control at 31 g/ha ([10]; 31 g ai/ha, preemergence): 90%
- pest or weed control at 62 g/ha ([10]; 62 g ai/ha, preemergence): 100%
- pest or weed control at 125 g/ha ([10]; 125 g ai/ha, preemergence): 100%
- pest or weed control at 16 g/ha ([10]; Preemergence, 16 g ai/ha): 60%
- plant injury at 31 g/ha ([11]; 31 g ai/ha, preemergence): 0%
- plant injury at 62 g/ha ([11]; 62 g ai/ha, preemergence): 5%
- plant injury at 125 g/ha ([11]; 125 g ai/ha, preemergence): 35%
- plant injury at 16 g/ha ([11]; Preemergence, 16 g ai/ha): 0%
- pest or weed control at 31 g/ha ([12]; 31 g ai/ha, preemergence): 5%
- pest or weed control at 62 g/ha ([12]; 62 g ai/ha, preemergence): 25%
- pest or weed control at 125 g/ha ([12]; 125 g ai/ha, preemergence): 60%
- pest or weed control at 16 g/ha ([12]; Preemergence, 16 g ai/ha): 0%
